Assay results as given in ChEMBL document CHEMBL4428049, “Design and synthesis of aminothiazole modulators of the gamma-secretase enzyme” (Bioorg Med Chem Lett, 2016).
≈ marks a conversion by molar mass, not a printed value.

Experiments:
[1] = AUC (infinity) in CD1 mouse at 5 mg/kg administered via oral gavage by HPLC/MS/MS analysis; format: ADME, organism-based; design: dose 5 mg/kg, time infinity, route oral; conditions: in vivo
[2] = Ratio of drug level in brain to plasma in CD1 mouse at 5 mg/kg administered via oral gavage by HPLC/MS/MS analysis; format: ADME, organism-based; conditions: read-out: BPR
[3] = target: Cytochrome P450 3A4 (Homo sapiens, UniProt P08684); experiment: Inhibition of recombinant CYP3A4 (unknown origin) by fluorescence-based assay; format: ADME
[4] = Clearance in CD1 mouse at 1 mg/kg, iv administered as single dose by HPLC/MS/MS analysis; format: ADME, organism-based; conditions: in vivo
[5] = target: T1, Cytochrome P450 1A2 (Homo sapiens, UniProt P05177); experiment: Inhibition of recombinant CYP1A2 (unknown origin) by fluorescence-based assay; format: ADME
T1 sequence (P05177 whole entry): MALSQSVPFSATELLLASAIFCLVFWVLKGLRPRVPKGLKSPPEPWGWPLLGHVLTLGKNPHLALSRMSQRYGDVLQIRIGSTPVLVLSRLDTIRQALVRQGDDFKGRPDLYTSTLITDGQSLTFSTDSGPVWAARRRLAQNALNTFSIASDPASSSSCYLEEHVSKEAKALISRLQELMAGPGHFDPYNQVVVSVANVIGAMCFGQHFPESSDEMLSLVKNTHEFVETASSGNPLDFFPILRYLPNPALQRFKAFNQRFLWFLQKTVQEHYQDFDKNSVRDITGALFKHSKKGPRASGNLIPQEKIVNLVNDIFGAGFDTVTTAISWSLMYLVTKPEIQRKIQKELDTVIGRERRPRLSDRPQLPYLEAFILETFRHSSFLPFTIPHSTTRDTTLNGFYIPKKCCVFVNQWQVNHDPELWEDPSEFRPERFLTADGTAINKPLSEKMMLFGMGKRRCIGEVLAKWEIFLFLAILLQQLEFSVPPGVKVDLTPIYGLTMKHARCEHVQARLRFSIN

[6] = Stability in mouse liver microsomes assessed as compound remaining at 1 uM incubated for 30 mins; format: ADME, Microsome; conditions: read-out: Stability
[7] = target: Voltage-gated inwardly rectifying potassium channel KCNH2 (Homo sapiens, UniProt Q12809); experiment: Inhibition of human ERG channel expressed in HEK293 cells by patch-clamp assay; format: cell-based
[8] = Cmax in CD1 mouse at 1 mg/kg, iv administered as single dose by HPLC/MS/MS analysis; format: ADME, organism-based; design: dose 1 mg/kg, route intravenous; conditions: in vivo
[9] = AUC (last) in CD1 mouse at 5 mg/kg administered via oral gavage by HPLC/MS/MS analysis; format: ADME, organism-based; design: dose 5 mg/kg, time 0 - last, route oral; conditions: in vivo
[10] = Cmax in CD1 mouse at 5 mg/kg administered via oral gavage by HPLC/MS/MS analysis; format: ADME, organism-based; design: dose 5 mg/kg, route oral; conditions: in vivo
[11] = Half life in CD1 mouse at 5 mg/kg administered via oral gavage by HPLC/MS/MS analysis; format: ADME, organism-based; conditions: in vivo
[12] = Half life in CD1 mouse at 1 mg/kg, iv administered as single dose by HPLC/MS/MS analysis; format: ADME, organism-based; conditions: in vivo
[13] = Ratio of drug level in brain to plasma in CD1 mouse at 5 mg/kg administered via oral gavage measured after 4 hrs by HPLC/MS/MS analysis; format: ADME, organism-based; conditions: read-out: BPR
[14] = Kinetic solubility in PBS buffer at pH 7.4 by UV/vis absorbance analysis; format: physicochemical; conditions: read-out: Kinetic_solubility
[15] = Efflux ratio of permeability from basolateral to apical over apical to basolateral side of MDCK cells expressing MDR1; format: ADME, cell-based, Canis lupus familiaris; conditions: dog
[16] = Tmax in CD1 mouse at 1 mg/kg, iv administered as single dose by HPLC/MS/MS analysis; format: ADME, organism-based; conditions: in vivo
[17] = Ratio of drug level in brain to plasma in CD1 mouse at 1 mg/kg, iv administered as single dose measured after 1 hr by HPLC/MS/MS analysis; format: ADME, organism-based; conditions: read-out: BPR
[18] = Ratio of drug level in brain to plasma in CD1 mouse at 5 mg/kg administered via oral gavage measured after 8 hrs by HPLC/MS/MS analysis; format: ADME, organism-based; conditions: read-out: BPR
[19] = Lipophilicity, log D of the compound; format: physicochemical; conditions: octanol/water
[20] = target: Gamma-secretase; experiment: Modulation of gamma-secretase in human SH-SY5Y cells overexpressing wild-type human APP751 assessed as inhibition of Abeta42 level after 24 hrs by ELISA; format: cell-based
[21] = Apparent permeability in MDCK cells expressing MDR1; format: ADME, cell-based, Canis lupus familiaris; conditions: dog
[22] = Stability in rat liver microsomes assessed as compound remaining at 1 uM incubated for 30 mins; format: ADME, Microsome; conditions: read-out: Stability
[23] = Stability in human liver microsomes assessed as compound remaining at 1 uM incubated for 30 mins; format: ADME, Microsome; conditions: read-out: Stability
[24] = target: Cytochrome P450 2C19 (Homo sapiens, UniProt P33261); experiment: Inhibition of recombinant CYP2C19 (unknown origin) by fluorescence-based assay; format: ADME
[25] = Volume of distribution at steady state in CD1 mouse at 1 mg/kg, iv administered as single dose by HPLC/MS/MS analysis; format: ADME, organism-based; conditions: in vivo, read-out: Vdss
[26] = Protein binding in plasma (unknown origin); format: ADME, cell-free; conditions: read-out: PPB (converted)
[27] = Tmax in CD1 mouse at 5 mg/kg administered via oral gavage by HPLC/MS/MS analysis; format: ADME, organism-based; conditions: in vivo
[28] = Clearance in CD1 mouse at 1 mg/kg administered intravenously by HPLC/MS/MS analysis relative to hepatic blood flow; conditions: in vivo, iv
[29] = AUC (infinity) in CD1 mouse at 1 mg/kg, iv administered as single dose by HPLC/MS/MS analysis; format: ADME, organism-based; design: dose 1 mg/kg, route intravenous, time infinity; conditions: in vivo
[30] = target: Cytochrome P450 2D6 (Homo sapiens, UniProt P10635); experiment: Inhibition of recombinant CYP2D6 (unknown origin) by fluorescence-based assay; format: ADME
[31] = target: Cytochrome P450 2C9 (Homo sapiens, UniProt P11712); experiment: Inhibition of recombinant CYP2C9 (unknown origin) by fluorescence-based assay; format: ADME
[32] = AUC (last) in CD1 mouse at 1 mg/kg, iv administered as single dose by HPLC/MS/MS analysis; format: ADME, organism-based; design: dose 1 mg/kg, time 0 - last, route intravenous; conditions: in vivo

Voltage-gated inwardly rectifying potassium channel KCNH2, sequence (Q12809 whole entry): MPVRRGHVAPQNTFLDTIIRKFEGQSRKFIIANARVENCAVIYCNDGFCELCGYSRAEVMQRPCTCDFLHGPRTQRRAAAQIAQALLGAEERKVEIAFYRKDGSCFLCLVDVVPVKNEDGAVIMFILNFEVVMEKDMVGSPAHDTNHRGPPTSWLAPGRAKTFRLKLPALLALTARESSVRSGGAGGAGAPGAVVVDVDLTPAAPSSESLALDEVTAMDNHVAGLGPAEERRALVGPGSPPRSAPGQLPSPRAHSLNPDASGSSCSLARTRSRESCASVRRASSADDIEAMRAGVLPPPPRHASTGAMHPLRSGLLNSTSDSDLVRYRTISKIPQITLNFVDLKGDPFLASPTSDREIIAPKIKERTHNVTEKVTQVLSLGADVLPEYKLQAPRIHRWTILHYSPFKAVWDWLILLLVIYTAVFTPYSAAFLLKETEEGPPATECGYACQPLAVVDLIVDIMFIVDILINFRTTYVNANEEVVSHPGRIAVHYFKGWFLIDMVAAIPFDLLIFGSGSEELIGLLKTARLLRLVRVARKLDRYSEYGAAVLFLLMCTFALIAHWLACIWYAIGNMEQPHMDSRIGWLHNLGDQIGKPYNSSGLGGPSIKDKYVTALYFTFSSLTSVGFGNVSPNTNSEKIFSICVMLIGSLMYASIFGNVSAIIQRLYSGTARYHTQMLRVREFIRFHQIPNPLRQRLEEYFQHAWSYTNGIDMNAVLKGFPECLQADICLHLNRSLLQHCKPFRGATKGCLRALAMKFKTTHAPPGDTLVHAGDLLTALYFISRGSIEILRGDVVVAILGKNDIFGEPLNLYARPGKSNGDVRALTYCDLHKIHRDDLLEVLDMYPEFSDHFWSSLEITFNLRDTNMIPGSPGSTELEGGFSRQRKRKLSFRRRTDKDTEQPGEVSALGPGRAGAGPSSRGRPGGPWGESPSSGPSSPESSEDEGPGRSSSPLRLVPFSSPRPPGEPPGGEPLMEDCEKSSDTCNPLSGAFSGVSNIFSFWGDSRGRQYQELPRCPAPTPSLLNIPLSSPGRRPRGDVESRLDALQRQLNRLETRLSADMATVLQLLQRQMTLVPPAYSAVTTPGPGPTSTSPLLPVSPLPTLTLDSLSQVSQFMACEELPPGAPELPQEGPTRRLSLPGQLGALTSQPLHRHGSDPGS
Cytochrome P450 2D6, sequence (P10635 whole entry): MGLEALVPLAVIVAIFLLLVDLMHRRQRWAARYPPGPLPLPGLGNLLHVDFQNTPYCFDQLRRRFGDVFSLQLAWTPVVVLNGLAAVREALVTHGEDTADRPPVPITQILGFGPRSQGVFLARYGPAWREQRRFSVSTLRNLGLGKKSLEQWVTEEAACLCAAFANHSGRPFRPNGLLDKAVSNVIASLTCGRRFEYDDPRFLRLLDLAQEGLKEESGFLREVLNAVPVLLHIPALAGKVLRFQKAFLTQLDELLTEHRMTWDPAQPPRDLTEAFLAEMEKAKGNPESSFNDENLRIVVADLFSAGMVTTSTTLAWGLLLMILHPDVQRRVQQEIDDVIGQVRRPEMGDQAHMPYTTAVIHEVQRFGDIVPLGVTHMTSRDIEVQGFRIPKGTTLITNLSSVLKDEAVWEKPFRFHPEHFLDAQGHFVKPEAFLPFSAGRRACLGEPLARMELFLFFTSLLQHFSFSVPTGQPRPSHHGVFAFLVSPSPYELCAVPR
Cytochrome P450 3A4, sequence (P08684 whole entry): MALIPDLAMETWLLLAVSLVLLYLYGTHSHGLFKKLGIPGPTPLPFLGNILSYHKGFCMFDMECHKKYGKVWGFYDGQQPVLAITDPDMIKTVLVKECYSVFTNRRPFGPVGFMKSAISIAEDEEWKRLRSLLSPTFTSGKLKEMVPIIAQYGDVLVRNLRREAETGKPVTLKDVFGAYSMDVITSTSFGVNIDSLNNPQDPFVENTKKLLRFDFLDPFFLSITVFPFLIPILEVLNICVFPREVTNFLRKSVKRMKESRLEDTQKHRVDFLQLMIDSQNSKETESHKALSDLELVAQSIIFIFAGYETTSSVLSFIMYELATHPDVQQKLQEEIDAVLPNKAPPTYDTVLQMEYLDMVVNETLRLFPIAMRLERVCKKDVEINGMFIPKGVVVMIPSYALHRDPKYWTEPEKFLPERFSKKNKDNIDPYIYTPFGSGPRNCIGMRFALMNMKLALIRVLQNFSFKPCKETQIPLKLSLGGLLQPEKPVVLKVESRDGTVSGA
Cytochrome P450 2C19, sequence (P33261 whole entry): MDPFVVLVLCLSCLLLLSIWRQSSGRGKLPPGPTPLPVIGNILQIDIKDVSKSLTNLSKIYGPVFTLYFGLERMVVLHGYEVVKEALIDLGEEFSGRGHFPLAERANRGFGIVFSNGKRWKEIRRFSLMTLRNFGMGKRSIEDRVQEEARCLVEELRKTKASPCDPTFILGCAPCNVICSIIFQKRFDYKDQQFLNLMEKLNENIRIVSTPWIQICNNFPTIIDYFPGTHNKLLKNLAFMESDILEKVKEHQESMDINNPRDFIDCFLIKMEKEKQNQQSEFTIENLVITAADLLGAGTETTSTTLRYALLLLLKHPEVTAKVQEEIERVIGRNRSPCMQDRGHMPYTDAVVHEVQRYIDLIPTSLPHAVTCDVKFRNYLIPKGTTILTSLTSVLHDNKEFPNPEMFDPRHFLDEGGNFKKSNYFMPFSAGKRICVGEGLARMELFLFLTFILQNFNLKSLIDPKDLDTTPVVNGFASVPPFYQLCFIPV
Cytochrome P450 2C9, sequence (P11712 whole entry): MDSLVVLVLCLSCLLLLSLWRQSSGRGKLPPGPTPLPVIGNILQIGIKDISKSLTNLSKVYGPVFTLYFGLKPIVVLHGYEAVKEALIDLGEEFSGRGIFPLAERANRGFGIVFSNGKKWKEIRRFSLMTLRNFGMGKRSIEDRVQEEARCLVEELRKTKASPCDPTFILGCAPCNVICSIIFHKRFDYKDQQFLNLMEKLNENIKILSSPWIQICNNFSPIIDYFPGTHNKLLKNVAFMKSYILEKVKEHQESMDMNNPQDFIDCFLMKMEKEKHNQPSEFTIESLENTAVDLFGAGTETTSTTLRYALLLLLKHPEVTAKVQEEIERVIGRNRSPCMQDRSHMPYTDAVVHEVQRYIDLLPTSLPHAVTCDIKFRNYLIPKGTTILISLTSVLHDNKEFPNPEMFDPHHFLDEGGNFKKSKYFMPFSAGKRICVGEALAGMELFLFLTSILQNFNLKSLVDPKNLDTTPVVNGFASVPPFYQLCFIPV

## CCn1nc(C(C)(C)C)cc1Nc1nc(-c2ccc(-n3cnc(C)c3)c(F)c2)cs1
[1]
  AUC(0-inf): 5.72 µg·h/mL
[2]
  Kp: 0.5
[3]
  IC50: 16 µM
[4]
  clearance: 2.01 L/h/kg
[5]
  IC50: > 100 µM
[6]
  remaining at 0.5 h, 1 µM: 95%
[7]
  IC50: > 30 µM
[8]
  Cmax: 0.161 µg/mL
[9]
  AUC(0-t): 5.39 µg·h/mL
[10]
  Cmax: 1.01 µg/mL
[11]
  half-life: 6 h
[12]
  half-life: 2.4 h
[13]
  Kp at 4 h: 0.53
[14]
  solubility kinetic: 4.7 µM (≈ 2 µg/mL)
[15]
  efflux ratio: 1.6
[16]
  Tmax: 4.98 min
[17]
  Kp at 1 h: 0.64
[18]
  Kp at 8 h: 0.59
[19]
  logD: 3.64
[20]
  IC50: 0.063 µM
[21]
  Papp: 9.7 nm/s
[22]
  remaining at 0.5 h, 1 µM: 64%
[23]
  remaining at 0.5 h, 1 µM: 51%
[24]
  IC50: 82 µM
[25]
  Vd: 7.15 L/kg
[26]
  fraction unbound: 0.006
[27]
  Tmax: 1 h
[28]
  CL: 40%
[29]
  AUC(0-inf): 0.498 µg·h/mL
[30]
  IC50: > 100 µM
[31]
  IC50: > 100 µM
[32]
  AUC(0-t): 0.335 µg·h/mL
